# Data reported in US4637997A, “Hexapeptide, process for obtaining II and the pharmaceutical compositions containing II” (Institut National de la Sante et de la Recherche Medicale, priority 1984, dated 1987).
# Peptide text beside a SMILES is read from it.
# Tested on: Klebsiella pneumoniae
# Test: experimental infection with Klebsiella pneumoniae in the mouse
# Assay type: in vivo
# Details: i.v.
compound,measurement,value
"CC[C@H](C)[C@H](NC(=O)[C@@H]1CCCN1C(=O)[C@H](CCC(=O)O)NC(=O)[C@@H](N)C(C)C)C(=O)N1CCC[C@H]1C(=O)N[C@@H](Cc1ccc(O)cc1)C(=O)O [hexapeptide of formula (I), Val-Glu-Pro-Ile-Pro-Tyr] (H-VEPIPY-OH)",dose from which remarkable activity against experimental infection is exhibited,≥ 0.05 mg/kg
